Laboratory results from patent US20170128489A1 (priority 2014, published 2017).
pEC50: −log10 of the molar value. Like-named read-outs stand apart in the source and are kept apart here.

Key:
[1] = biological target: M2 (22-62, S31N) (Influenza A virus, UniProt P0DOF5, S31N); type: biochemical
[2] = tested on: influenza A (S31N), A/California/07/2009; type: cell-based, Influenza A virus
[3] = biological target: influenza A M2 channels (A/Udorn/72, S31N mutant) (Influenza A virus, UniProt P0DOF5, S31N); type: cell-based; conditions: for Percent Block / pEC50: pH 5.3
[4] = biological target: M2 22-62 peptide, mutant A/Udorn/72 S31N (Influenza A virus, UniProt P0DOF5, S31N); type: biochemical
[5] = tested on: influenza A (S31N), A/California/07/2009; type: cell-based, Influenza A virus; remark: listed apart in the source

Compound	% Block [1] [%]	% Block [2] [%]	pEC50 [2]	Percent Washout [3] [%]	Percent Block [3]	Mutant Percent Block [4] [%]	Mutant w/ Compound Proton Flux [4] [H^+/sec/channel]	% Block [5] [%]	pEC50 [5]	pEC50 [3]	pEC50 [1]
O=C(O)CN(CC(=O)O)C12CC3CC(CC(C3)C1)C2.[Cu] [Amt-IDA-Cu, Copper N-(1-adamantyl)-iminodiacetic acid]	82	82	4.66	–	–	–	–	–	–	–	–
O=C1C[N](C2CCCCCCC2)[Cu]2([O]1)[O]C(=O)C[N]2C1CCCCCCC1 [Bis(CO-IMA)-Cu, Copper biscyclooctyl iminomonoacetic acid]	–	–	–	11	81%	70.38	16.95	66.4	4.60	–	–
O=C(O)CN(CC(=O)O)C1CCCCCCC1 [CO-IDA, Cylcooctyliminodiacetic acid]	–	–	–	–	No Block	–	–	–	–	–	–
O=C(O)CN(CC(=O)O)C1CCCCCCC1.[Cu] [CO-IDA-Cu, Copper cyclooctyliminodiacetic acid]	–	–	–	94	26%	75.75	12.89	62.2	4.52	–	–
O=C(O)CN(CC(=O)O)C1CCCCCCC1.[Zn] [CO-IDA-Zn, Zinc cyclooctyliminodiacetic acid]	–	–	–	80	32%	76.29	13.21	61.5	–	–	–
NC(=O)CN(CC(N)=O)C1CCCCCCC1 [CO-IDAm, Cyclooctylimidodiacetamide]	–	–	–	100	17%	–	–	–	–	–	–
CC(=O)[O][Zn]1[O]C(=O)C[N]1C1CCCCCCC1 [CO-IMA-Zn, Zinc cyclooctylaminoacetic acid]	–	–	–	93	42%	–	–	79.8	4.90	–	–
CC(=O)[O-].CC(=O)[O-].[Cu+2] [Cu(Acetate)2, reference compound]	–	–	–	4	70%	67.23	17.85	38	4.39	4.13	–
NCCNCCN.[Cl][Cu][Cl] [Cu(dien)Cl2, reference compound]	–	66	4.29	–	–	–	–	–	–	–	–
[Cl][Cu][Cl] [CuCl2, reference compound]	94	63	4.24	–	–	–	–	–	–	–	5.21
Cobalt Biscyclooctylimidodiacetic acid [Bis(CO-IDA)-Co]	–	–	–	89	28%	–	–	50.6	4.61	3.62	–
Cobalt bisethylenediamine pinanamine imidazole [Pin-Imid-Co-Bis(en)]	–	–	–	–	No Block	–	–	65.6	4.88	–	–
Copper N-(1-adamantyl)iminoacetate acetylacetonate [Amt-IMA-Cu-ACAC]	96	97	5.54	58	65%	–	–	–	–	–	–
Copper N-(1-cyclooctyl)iminoacetate acetylacetonate [CO-IMA-Cu-ACAC]	–	–	–	16	73%	–	–	65.7	4.88	–	–
Copper cyclooctylimidodiacetamide [CO-IDAm-Cu]	–	–	–	10	86%	–	–	60.2	4.47	–	–
Copper pinanamine imidazole [Pin-Imid-Cu]	–	–	–	–	–	–	–	71.6	–	–	–
Zinc cyclooctylimidodiacetamide [CO-IDAm-Zn]	–	–	–	74	42%	–	–	54	4.67	–	–
